Broadly, the IC50 is the concentration that inhibits the measured activity by half.

This assay has as its target T1, full length active recombinant SYK enzyme (Homo sapiens, UniProt P43405).
T1 construct: full length active recombinant SYK enzyme (Millipore, Calif.); purchased Millipore
Description: Inhibition of Syk tyrosine phosphorylation activity (LANCE TR-FRET kinase assay). The class given is biochemical. Particulars: activity in the Syk assays, class symbols. The source says:
The in vitro and in vivo human Syk activities of the inventive compounds can be determined by various procedures known in the art, such as a test for their ability to inhibit the activity of human plasma Syk. […] The IC50 value is the concentration (in nM) of the compound required to provide 50% inhibition of human Syk proteolytic activity.
An in vitro assay for detecting and measuring inhibition activity against Syk is as follows:
Inhibition of Syk Tyrosine Phosphorylation Activity
Potency of candidate molecules for inhibiting Syk tyrosine phosphorylation activity is assessed by measuring the ability of a test compound to inhibit Syk-mediated tyrosine phosphorylation of a Syk-specific substrate.
SYK tyrosine phosphorylation activity is measured using the LANCE™ Technology developed by Perkin Elmer Life and Analytical Sciences (Boston, Mass.). LANCE™ refers to homogeneous time resolved fluorometry applications using techniques such as time-resolved fluorescence resonance energy transfer assay (TR-FRET) (see generally for procedures in Perkin Elmer Application Note-How to Optimize a Tyrosine Kinase Assay Using Time Resolved Fluorescence-Based LANCE Detection, wwww.perkinelmer.com/lifesciences). The assay principle involves detection of a phosphorylated substrate using energy transfer from a phosphospecific europium-labeled antibody to streptavidin-allophycocyanin as an acceptor.
To test the ability of candidate molecules to inhibit SYK tyrosine phosphorylation activity, molecules are reconstituted in 30% DMSO and serially diluted 1:3 with the final dilution containing DMSO in the absence of the candidate molecule. The final DMSO concentration in the assay is 3%. Kinase assays are performed as a two part reaction. The first reaction is a kinase reaction and which comprises of a candidate molecule, full length active recombinant SYK enzyme (Millipore, Calif.) and biotin-labeled SYK-specific substrate biotin-DEEDYESP-OH. The second reaction involves termination of the kinase reaction and the simultaneous addition of the detection reagents-europium-labeled anti-phosphotyrosine reagent (Eu-W1024-PY100, Perkin Elmer, Boston, Mass.) and Streptavidin-Allophycocyanin detection reagent (SA-APC, Prozyme, CA). The kinase reaction is performed in a black U-bottom 96-well microtitre plate. The final reaction volume is 50 μL and contains a final concentration of 1 nM active SYK enzyme, 550 nM SYK-substrate, and 100 μM ATP diluted in a buffer containing 50 mM Tris pH 7.5, 5 mM MgCl2, and 1 mM DTT. The reaction is allowed to proceed for 1 hour at room temperature. The quench buffer contains 100 mM Tris pH 7.5, 300 mM NaCl2, 20 mM EDTA, 0.02% Brij35, and 0.5% BSA. The detection reagents are added to the reaction mixture at the following dilutions-1:500 for Eu-W1024-PY100 and 1:250 for SA-APC. The kinase reaction is terminated by the addition of 50 μL quench buffer containing the detection reagents. The detection is allowed to proceed for 1 hr at room temperature. Detection of the phosphorlated substrate in the absence and presence of inhibitors is measured in the TR-FRET instrument, Analyst HT (Molecular Probes, Sunnyvale, Calif.) and the condition for measurements are set up using CriterionHost Release 2.0 (Molecular Probes, Sunnyvale, Calif.). The settings used are a follows: excitation 360 nm, emission 665-7.5 nm, beam splitter 350 nm 50/50, flash 100 pulses, delay 60 us, integration 400 us, z-height 2 mm. Inhibition of SYK-tyrosine kinase activity is calculated as the maximum response observed in the presence of inhibitor, compared to that in the absence of inhibitor. IC50s were derived by non-linear regression analysis.
A general note: Time-resolved FRET reads energy transfer from a long-lived donor to a nearby acceptor.
On to `Cc1cc(Nc2nc(N[C@H](Cc3c[nH]c4ccccc34)C(N)=O)cnc2C(N)=O)sn1` [Example 389, (R)-5-(1-amino-3-(1H-indol-3-yl)-1-oxopropan-2-ylamino)-3-(3-methylisothiazol-5-ylamino)pyrazine-2-carboxamide], for which the IC50 lay in the range of 1 to 10 nM.

Turning to `Cc1cc(Nc2nc(N[C@H](CC(C)(C)C)C(N)=O)cnc2C(N)=O)sn1` [Example 266, (R)-5-(1-amino-4,4-dimethyl-1-oxopentan-2-ylamino)-3-(3-methylisothiazol-5-ylamino)pyrazine-2-carboxamide], the IC50 fell in the range of 10 to 100 nM.

As for `CC(C)[C@@H](Nc1cnc(C(N)=O)c(Nc2ccc3ncccc3c2)n1)C(N)=O` [Example 67, (R)-5-(1-amino-3-methyl-1-oxobutan-2-ylamino)-3-(quinolin-6-ylamino)pyrazine-2-carboxamide], the IC50 was in the range of 1 to 10 nM.

For the compound `CC[C@@H](Nc1cnc(C(N)=O)c(-n2cnc(-c3ccc(N)cc3)c2)n1)C(N)=O` [Example 97, (R)-5-(1-amino-1-oxobutan-2-ylamino)-3-(4-(4-aminophenyl)-1H-imidazol-1-yl)pyrazine-2-carboxamide], the IC50 is more than 1000 nM.

With `NC(=O)c1ncc(N[C@@H]2CCCC[C@@H]2N)nc1Nc1snc2ccccc12` [Example 270, 5-((1R,2S)-2-aminocyclohexylamino)-3-(benzo[c]isothiazol-3-ylamino)pyrazine-2-carboxamide], the IC50 was less than 1 nM.

Take `CC(C)(C)[C@@H](Nc1cnc(C(N)=O)c(Nc2cnc3ccc(F)cc3c2)n1)C(N)=O` [Example 234, (R)-5-(1-amino-3,3-dimethyl-1-oxobutan-2-ylamino)-3-(6-fluoroquinolin-3-ylamino)pyrazine-2-carboxamide]: the IC50 lay within 1 to 10 nM.

Consider `Cc1cc(Nc2nc(N[C@H](CC3CC3)C(N)=O)cnc2C(N)=O)ccn1` [Example 101, (R)-5-(1-amino-3-cyclopropyl-1-oxopropan-2-ylamino)-3-(2-methylpyridin-4-ylamino)pyrazine-2-carboxamide], for which the IC50 fell in the range of 1 to 10 nM.

Regarding `NC(=O)c1ncc(N[C@H](Cc2ccccc2)C(N)=O)nc1Nc1ccc2ncccc2c1` [Example 31, (R)-5-(1-amino-1-oxo-3-phenylpropan-2-ylamino)-3-(quinolin-6-ylamino)pyrazine-2-carboxamide], the IC50 lay in the range of 1 to 10 nM.

Consider `NC(=O)c1ncc(N[C@@H]2CCCC[C@@H]2N)nc1Nc1cc(CN2CCOCC2)ns1` [Example 255, 5-((1R,2S)-2-aminocyclohexylamino)-3-(3-(morpholinomethyl)isothiazol-5-ylamino)pyrazine-2-carboxamide], for which the IC50 is 10 to 100 nM.

For `CC[C@@H](Nc1cnc(C(N)=O)c(Nc2ccc(C)cc2)n1)C(N)=O` [Example 152, (R)-5-(1-amino-1-oxobutan-2-ylamino)-3-(p-tolylamino)pyrazine-2-carboxamide], the IC50 lay within 10 to 100 nM.

As for `NC(=O)c1ncc(N[C@@H]2CCCC(F)(F)[C@@H]2N)nc1Nc1ccc2nc(N3CCC3)oc2c1` [Example 337, 5-((1R,2R)-2-amino-3,3-difluorocyclohexylamino)-3-(2-(azetidin-1-yl)benzo[d]oxazol-6-ylamino)pyrazine-2-carboxamide], the half-inhibitory concentration (IC50) was in the range of 10 to 100 nM.

Turning to `Cc1cc(Nc2nc(N[C@@H](C(N)=O)c3ccccc3)cnc2C(N)=O)sn1` [Example 395, (R)-5-(2-amino-2-oxo-1-phenylethylamino)-3-(3-methylisothiazol-5-ylamino)pyrazine-2-carboxamide], the IC50 lay in the range of 1 to 10 nM.

With `NC(=O)c1ncc(N[C@@H]2CCCC(F)(F)[C@@H]2N)nc1Nc1ccnc(OC2CCC2)c1` [Example 356, 5-((1R,2R)-2-amino-3,3-difluorocyclohexylamino)-3-(2-cyclobutoxypyridin-4-ylamino)pyrazine-2-carboxamide], the IC50 lay within 10 to 100 nM.

`NC(=O)c1ncc(N[C@@H]2CCCC(F)(F)[C@@H]2N)nc1Nc1csc2ncccc12` [Example 448, 5-(((1R,2R)-2-amino-3,3-difluorocyclohexyl)amino)-3-(thieno[2,3-b]pyridin-3-ylamino)pyrazine-2-carboxamide]: the IC50 is 1 to 10 nM.

As to `NC(=O)c1ncc(N[C@@H]2CCCC[C@@H]2N)nc1Nc1cnn(C2CC2)c1` [Example 258, 5-((1R,2S)-2-aminocyclohexylamino)-3-(1-cyclopropyl-1H-pyrazol-4-ylamino)pyrazine-2-carboxamide], the IC50 lay in the range of 10 to 100 nM.

Regarding `NC(=O)c1ncc(N[C@@H]2CCCC(F)(F)[C@@H]2N)nc1Nc1ccc2c(c1)CCC(=O)N2` [Example 25, 5-((1R,2R)-2-amino-3,3-difluorocyclohexylamino)-3-(2-oxo-1,2,3,4-tetrahydroquinolin-6-ylamino)pyrazine-2-carboxamide], the IC50 fell in the range of 1 to 10 nM.

In the case of `CC(C)C[C@@H](Nc1cnc(C(N)=O)c(Nc2cccc(-c3ccncc3)c2)n1)C(N)=O` [Example 87, (R)-5-(1-amino-4-methyl-1-oxopentan-2-ylamino)-3-(3-(pyridin-4-yl)phenylamino)pyrazine-2-carboxamide], the IC50 was in the range of 1 to 10 nM.

As for `NC(=O)c1ncc(N[C@@H](C(N)=O)c2ccccc2)nc1Nc1ccc2ncccc2c1` [Example 33, (R)-5-(2-amino-2-oxo-1-phenylethylamino)-3-(quinolin-6-ylamino)pyrazine-2-carboxamide], the IC50 is 1 to 10 nM.

As for `COc1ncc(Nc2nc(N[C@@H]3CCCC[C@@H]3N)cnc2C(N)=O)cn1` [Example 305, 5-((1R,2S)-2-aminocyclohexylamino)-3-(2-methoxypyrimidin-5-ylamino)pyrazine-2-carboxamide], the IC50 was in the range of 10 to 100 nM.

As for `NC(=O)c1ncc(N[C@@H]2CCCC[C@@H]2N)nc1Nc1cnn2ccccc12` [Example 413, 5-(((1R,2S)-2-aminocyclohexyl)amino)-3-(pyrazolo[1,5-a]pyridin-3-ylamino)pyrazine-2-carboxamide], the IC50 was less than 1 nM.

Regarding `NC(=O)c1ncc(N[C@@H](C(N)=O)C2CC2)nc1Nc1ccc2cnccc2c1` [Example 190, (R)-5-(2-amino-1-cyclopropyl-2-oxoethylamino)-3-(isoquinolin-6-ylamino)pyrazine-2-carboxamide], the IC50 was 1 to 10 nM.

Turning to `CC(C)[C@@H](Nc1cnc(C(N)=O)c(Nc2ccc(CS(C)(=O)=O)cc2)n1)C(N)=O` [Example 150, (R)-5-(1-amino-3-methyl-1-oxobutan-2-ylamino)-3-(4-(methylsulfonylmethyl)phenylamino)pyrazine-2-carboxamide], the IC50 lay within 100 to 1000 nM.

Take `COc1ccc(Nc2nc(N[C@H](CC3CC3)C(N)=O)cnc2C(N)=O)cc1OC` [Example 171, (R)-5-(1-amino-3-cyclopropyl-1-oxopropan-2-ylamino)-3-(3,4-dimethoxyphenylamino)pyrazine-2-carboxamide]: the IC50 lay within 1 to 10 nM.

On to `NC(=O)c1ncc(N[C@@H]2CCCC[C@@H]2N)nc1Nc1ccc(C2CC2)nc1` [Example 351, 5-((1R,2S)-2-aminocyclohexylamino)-3-(6-cyclopropylpyridin-3-ylamino)pyrazine-2-carboxamide], for which the concentration for half-maximal inhibition (IC50) lay within 1 to 10 nM.

Regarding `COc1ncc(Nc2nc(N[C@@H]3CCCC(F)(F)[C@@H]3N)cnc2C(N)=O)cc1C` [Example 332, 5-((1R,2R)-2-amino-3,3-difluorocyclohexylamino)-3-(6-methoxy-5-methylpyridin-3-ylamino)pyrazine-2-carboxamide], the IC50 is 10 to 100 nM.

Take `Cc1ccc(Nc2nc(N[C@@H](C(N)=O)C(C)C)cnc2C(N)=O)cc1` [Example 155, (R)-5-(1-amino-3-methyl-1-oxobutan-2-ylamino)-3-(p-tolylamino)pyrazine-2-carboxamide]: the IC50 was 10 to 100 nM.

As to `CC(C)C[C@@H](Nc1cnc(C(N)=O)c(Nc2ccnc(C3CC3)c2)n1)C(N)=O` [Example 344, (R)-5-(1-amino-4-methyl-1-oxopentan-2-ylamino)-3-(2-cyclopropylpyridin-4-ylamino)pyrazine-2-carboxamide], the IC50 is less than 1 nM.

The values are drawn from patent publication US9359308B2, “Pyrazine kinase inhibitors” (Portola Pharmaceuticals, Inc., priority 2011, dated 2016).
